Results on three compounds are retold here after patent US20240217997A1 (priority 2021, published 2024).

Converted amounts (≈) assume the structure as drawn. Like-named read-outs stand apart in the source and are kept apart here.

Experiment [1] deals with Plasmodium falciparum. Put plainly: Plasmodium falciparum minimum inhibitory concentration (MIC), Table 4. Type of experiment: cell-based.
Experiment [2] concerns the target P. falciparum DXR (Plasmodium falciparum, UniProt Q8IKG4). Particulars: cited from earlier work.
Experiment [3] deals with Mycobacterium tuberculosis. Put plainly: microbe, parasite or virus in culture.

Chain of P. falciparum DXR (Q8IKG4 73-488): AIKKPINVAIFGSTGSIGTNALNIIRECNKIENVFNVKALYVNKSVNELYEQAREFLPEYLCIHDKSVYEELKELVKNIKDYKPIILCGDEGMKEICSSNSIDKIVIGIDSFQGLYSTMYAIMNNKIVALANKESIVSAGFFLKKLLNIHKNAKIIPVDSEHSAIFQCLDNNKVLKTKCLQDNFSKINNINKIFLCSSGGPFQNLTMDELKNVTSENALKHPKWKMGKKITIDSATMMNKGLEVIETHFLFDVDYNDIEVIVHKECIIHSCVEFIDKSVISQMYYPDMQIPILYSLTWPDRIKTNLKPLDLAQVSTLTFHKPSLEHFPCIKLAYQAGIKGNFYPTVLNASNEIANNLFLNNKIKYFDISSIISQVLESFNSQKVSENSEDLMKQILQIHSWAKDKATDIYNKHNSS

As for `O=CN(O)CCCP(=O)(O)O` [Fosmidomycin], in experiment [1] (Mean of Runs 1-3), the “MIC, Mean” value is 0.9075 µg/mL (≈ 4.96 µM). In experiment [1] (Run 1), the “MIC, Run 1” value amounted to 1.391 µg/mL (≈ 7.6 µM). Further, the “MIC, Run 2” value in experiment [1] (Run 2) was 0.7607 µg/mL (≈ 4.15 µM). Moreover, in experiment [1] (Run 3), the “MIC, Run 3” value is 0.5708 µg/mL (≈ 3.12 µM).

Turning to `CC(=O)N(O)CCCP(=O)(O)O` [FR900098], the IC50 (as a rule, the midpoint of a concentration-inhibition curve) in experiment [2] is 24 nM.

`NNC(=O)c1ccncc1` [Isoniazid]: the MIC in experiment [3] (168 h, read-out: 1-week MIC 7H9/glucose/BSA/Tx) is 0.02 µg/mL (≈ 0.146 µM); in experiment [3] (168 h, read-out: 1-week MIC 7H9/glucose/casitone/Tx) it was 0.02 µg/mL (≈ 0.146 µM); in experiment [3] (168 h, read-out: 1-week MIC 7H9/glycerol/glucose/BSA/Tween) it was 0.03 µg/mL (≈ 0.219 µM); in experiment [3] (336 h, read-out: 2-week MIC 7H9/glucose/BSA/Tx), 0.03 µg/mL (≈ 0.219 µM); in experiment [3] (336 h, read-out: 2-week MIC 7H9/glucose/casitone/Tx), 0.02 µg/mL (≈ 0.146 µM); in experiment [3] (336 h, read-out: 2-week MIC 7H9/glycerol/glucose/BSA/Tween) it was 0.039 µg/mL (≈ 0.284 µM).
